What was measured:
[1] = Liquid; for speed of sound: Frequency=2 MHz, Pulse-echo method; for mass density: Vibrating tube method
[2] = molar heat capacity at constant pressure; conditions: 101.33 kPa, Liquid, Small sample (50 mg) DSC

CCCCCCCCCCCC(=O)OCC [ethyl dodecanoate]
[1]
Conditions	mass density [kg/m3]	speed of sound [m/s]
293.15 K, 100 kPa	–	1339.9
293.15 K, 101.33 kPa	862.2	–
293.15 K, 10000 kPa	–	1390.8
293.15 K, 20000 kPa	–	1436.7
293.15 K, 30000 kPa	–	1479.3
293.15 K, 40000 kPa	–	1519
293.15 K, 50000 kPa	–	1555.9
293.15 K, 60000 kPa	–	1591.9
293.15 K, 70000 kPa	–	1626.2
293.15 K, 80000 kPa	–	1659.7
293.15 K, 90000 kPa	–	1690.9
293.15 K, 100000 kPa	–	1720.9
293.15 K, 120000 kPa	–	1778.5
303.15 K, 101.33 kPa	854.3	–
313.15 K, 100 kPa	–	1266.1
313.15 K, 101.33 kPa	846.5	–
313.15 K, 10000 kPa	–	1317.6
313.15 K, 20000 kPa	–	1365
313.15 K, 30000 kPa	–	1409.3
313.15 K, 40000 kPa	–	1452.1
313.15 K, 50000 kPa	–	1491.4
313.15 K, 60000 kPa	–	1529.2
313.15 K, 70000 kPa	–	1564.8
313.15 K, 80000 kPa	–	1600.2
313.15 K, 90000 kPa	–	1632.3
313.15 K, 100000 kPa	–	1663
313.15 K, 120000 kPa	–	1721.9
313.15 K, 140000 kPa	–	1777.9
313.15 K, 160000 kPa	–	1830.9
323.15 K, 101.33 kPa	838.8	–
333.15 K, 100 kPa	–	1194
333.15 K, 101.33 kPa	831.1	–
333.15 K, 10000 kPa	–	1250.3
333.15 K, 20000 kPa	–	1300.9
333.15 K, 30000 kPa	–	1348
333.15 K, 40000 kPa	–	1393.4
333.15 K, 50000 kPa	–	1434.3
333.15 K, 60000 kPa	–	1473.3
333.15 K, 70000 kPa	–	1509.8
333.15 K, 80000 kPa	–	1545.4
333.15 K, 90000 kPa	–	1578.6
333.15 K, 100000 kPa	–	1610.9
333.15 K, 120000 kPa	–	1674.1
333.15 K, 140000 kPa	–	1730.4
333.15 K, 160000 kPa	–	1782.7
333.15 K, 180000 kPa	–	1835.3
333.15 K, 200000 kPa	–	1883.8
343.15 K, 101.33 kPa	823.2	–
353.15 K, 100 kPa	–	1125.7
353.15 K, 101.33 kPa	815.2	–
353.15 K, 10000 kPa	–	1186
353.15 K, 20000 kPa	–	1240.6
353.15 K, 30000 kPa	–	1290.3
353.15 K, 40000 kPa	–	1337.1
353.15 K, 50000 kPa	–	1379.7
353.15 K, 60000 kPa	–	1419.8
353.15 K, 70000 kPa	–	1458.8
353.15 K, 80000 kPa	–	1496.2
353.15 K, 90000 kPa	–	1530.6
353.15 K, 100000 kPa	–	1564.4
353.15 K, 120000 kPa	–	1627
353.15 K, 140000 kPa	–	1685.1
353.15 K, 160000 kPa	–	1740.7
353.15 K, 180000 kPa	–	1793.6
353.15 K, 200000 kPa	–	1843.5

viscosity [mPa·s], [1]
Conditions	293.15 K	313.15 K	333.15 K	353.15 K
101.33 kPa, Capillary tube (Ostwald / Ubbelohde) method	3.35	2.19	1.55	1.16
10000 kPa, quartz crystal resonator	3.77	2.46	1.74	1.29
20000 kPa, quartz crystal resonator	4.28	2.75	1.91	1.44
30000 kPa, quartz crystal resonator	4.78	3.11	2.13	1.58
40000 kPa, quartz crystal resonator	5.39	3.37	2.33	1.73
50000 kPa, quartz crystal resonator	5.94	3.74	2.55	1.9
60000 kPa, quartz crystal resonator	6.65	4.11	2.82	2.05
70000 kPa, quartz crystal resonator	7.25	4.45	3.08	2.22
80000 kPa, quartz crystal resonator	8.13	4.92	3.29	2.4
90000 kPa, quartz crystal resonator	8.91	5.46	3.6	2.58
100000 kPa, quartz crystal resonator	9.76	5.96	3.94	2.78
120000 kPa, quartz crystal resonator	11.9	6.77	4.55	3.22
140000 kPa, quartz crystal resonator	–	8.06	5.27	3.68
160000 kPa, quartz crystal resonator	–	9.57	6.1	4.19
180000 kPa, quartz crystal resonator	–	–	6.98	4.76
200000 kPa, quartz crystal resonator	–	–	7.85	5.28

[2]
Conditions	molar heat capacity at constant pressure [J/K/mol]
297.91 K	459.03
307.79 K	464.37
317.66 K	469.8
327.54 K	475.42
337.42 K	481.45
347.29 K	487.46
357.17 K	493.28
367.05 K	499.88
376.92 K	507.07
386.8 K	515.39

From the NIST ThermoML archive (doi:10.1016/j.jct.2017.12.020)
